Entries after “also recorded” stand apart in the source; their conditions may differ. Where two headings read alike, the source gives them in different places.
What was measured:
[1] = target: T1, alpha2 receptor (guinea pig vas deferens) (Cavia porcellus, UniProt Q60474); assay: Alpha2 activity in isolated, superfused guinea pig vas deferens: stimulated/basal 3H-norepinephrine release; assay type: cell-based; conditions: for alpha2 effects in guinea pig vas deferens (in words): up to the highest tested concentration
T1 construct: both vasa deferentia were removed and placed in a dish; from tissue; host or cells: isolated vas deferens of male guinea pigs
T1 sequence (Q60474 1-464): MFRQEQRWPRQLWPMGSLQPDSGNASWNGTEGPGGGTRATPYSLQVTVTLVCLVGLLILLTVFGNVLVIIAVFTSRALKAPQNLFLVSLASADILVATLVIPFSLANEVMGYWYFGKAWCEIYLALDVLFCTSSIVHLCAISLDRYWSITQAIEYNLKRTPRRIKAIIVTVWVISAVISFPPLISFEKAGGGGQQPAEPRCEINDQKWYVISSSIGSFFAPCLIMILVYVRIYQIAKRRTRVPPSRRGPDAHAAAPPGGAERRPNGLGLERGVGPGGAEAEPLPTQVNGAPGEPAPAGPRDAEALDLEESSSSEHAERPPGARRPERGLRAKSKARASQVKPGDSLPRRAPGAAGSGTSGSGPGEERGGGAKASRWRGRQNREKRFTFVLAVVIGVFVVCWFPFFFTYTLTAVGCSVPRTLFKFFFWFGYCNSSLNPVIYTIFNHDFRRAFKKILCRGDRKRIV
Excerpt: The second system utilized in determining the alpha2 activity of the compounds of interest is the isolated, superfused guinea pig vas deferens (Vas Def). From male (300-600 g) guinea pigs sacrificed by administration of a lethal amount of pentobarbital, both vasa deferentia were removed and placed in a dish containing a cold nutrient-buffer solution. The tissue was cleaned and the fibrous sheath removed gently. The ends were trimmed to yield segments about 4 cm in length and 4-0 silk ties attached to each end. The vasa deferentia then were incubated in 10 ml of nutrient-buffer solution containing […] of ^3 H-norepinephrine. Tissue was incubated at 37° C. for 30 minutes with continuous gassing with 95% O2, 5% CO2. After incubation, the tissue was mounted in a superfusion apparatus constructed of 3 mm ID glass tubing. One end was connected, via the silk tie, to a plug constructed of silicone rubber and polyethylene with a platinum wire hook. The other tie was connected to a force-displacement transducer. About 1 g of tension was applied to the tissue, and superfusion with nutrient-buffer solution initiated at 2 ml/minute, using a peristaltic pump. The chambers had platinum electrodes fused through the glass at the top and bottom to allow field stimulation of the tissue.
Before compound testing, tissues were equilibrated for at least 2 hours, during which time stimulation (3 Hz, 0.7 msec pulse duration, 80 V) was applied for 2 minutes at 30 minute intervals. Following this equilibration period, three control stimulations were performed. For each stimulation, two effluent samples were collected directly into 20 ml scintillation vials; one prior to, and one during field stimulation. The basal sample was collected during a 2 minute interval immediately prior to stimulation. The stimulation sample was collected beginning 30 seconds after initiation of stimulation, and continuing for 30 seconds following termination of the field stimulation. This lag period is to allow for the dead space in the superfusion chamber. This collection-stimulation procedure was repeated at 20 minute intervals. Following the third control collection, compound was added into the superfusion flow; 20 minutes later the collection-stimulation was repeated in the presence of compound. Compound concentration was increased ten-fold following each stimulation, and the cycle repeated until four drug concentrations had been tested. A final stimulation-collection was performed after termination of compound superfusion.
Ten ml of standard scintillation fluid (Aquasol-II) was added to all samples, and the DPM values were determined on a beta-scintillation counter. The stimulated/basal release ratio was determined for each pair. The stimulated/basal ratios for the three initial control collections were averaged to obtain a mean control ratio. The compound effect was determined by comparing the stimulated/basal ratio in the presence of increasing compound concentration to the mean control ratio. The EC50 was defined as the compound concentration producing a 50% increase in the stimulated/basal release ratio.
(§1) The results are expressed in nanomolar concentrations. Compound (D) is the prior art compound mentioned above; compounds (E) and (F) are compounds of the present invention.

[2] = system: alpha3 receptor (dog saphenous vein); assay: Alpha3 activity in dog saphenous vein: shift of BHT-920 dose-response curve; assay type: cell-based; conditions: for antagonism in the alpha3 test system (in words) / Kb: dog saphenous vein; for separation in the concentrations producing alpha2 and alpha3 effects: guinea pig vas deferens (alpha2) vs dog saphenous vein (alpha3); for Kb: read-out: KB alpha3 DSV, BHT-920 agonist
Experimental: (§2) The receptor dissociation constant (KB) for the antagonist was determined using the relationship [formula] (Furchgott, R. F., Handbook of Experimental Pharmacology, eds. Eichler, et al., pp. 283-335 (Springer 1972)). The KB value obtained at each antagonist concentration was averaged to obtain a mean KB for each experiment.
The dog saphenous vein (DSV) was used as the test system for measuring activity of the compounds at the alpha3 receptor. This test system has been shown a suitable preparation in which to characterize postsynaptic alpha2 (alpha3) adrenoceptors. Sullivan, A. T. and G. M. Drew, Arch. Pharmacol. 314:249-58 (1980). This test system is prepared by removing the lateral saphenous vein from an anesthetized dog and cutting the vein into segments of 10 mm in length. Each segment then is cut into a helical strip and mounted, in a tissue bath, between a stationary tissue holder and transducer with which isometric contractions are recorded as changes in grams of tension. Additional details of this methodology are found in Fowler, P. J., et al., J. Pharmacol. Exp. Ther. 229:712-18 (1984).
The alpha3 activity of the compounds of interest is determined by measuring shifts in the dose-response curve of a specific agonist induced by the tested compounds. The alpha2 specific agonist, BHT-920, was used in testing the compounds listed in Table I. Data are reported as KB, defined above.
as §1

[3] = system: alpha1 adrenoceptor (rabbit aorta); assay: Alpha1 activity in rabbit aorta segments: antagonism of norepinephrine contraction; assay type: cell-based; conditions: for Kb: read-out: KB alpha1 Aorta, norepinephrine agonist
Experimental: Alpha1 activity was determined using the rabbit aorta. Male New Zealand White rabbits (2-4 Kg) were euthanized by cervical concussion. A 4 cm portion of the thoracic aorta was removed and placed in a dish of cold (10° C.) Krebs-Hensleit solution. The tissue was cleaned of fat and connective tissue and cut into segments of approximately 3 mm in length. These segments were suspended in 10 ml tissue baths via hangers constructed of 0.25 mm tungsten wire. One hanger was fixed to a support in the bath, the other attached via silk thread to a force-displacement transducer.
Tissue segments were equilibrated for 2 hours prior to drug testing, during which time basal tension was maintained at 2 gm. Tissues were washed at 30 minute intervals during this equilibration period. The Krebs-Hensleit solution contained cocaine (6 μM) to block neuronal uptake and propranolol (1 μM) to block beta-adrenoceptors. Tissues were usually challenged once with norepinephrine (0.1 μM) during the equilbration period to check for viability.
A cumulative concentration-response curve to norepinephrine was obtained in each aortic segment. Following washout of norepinephrine, the alpha adrenoceptor antagonist to be tested was added to the bath. After the tissue had been in contact with the antagonist for 30-60 minutes, the norepinephrine concentration response-curve was repeated in the presence of antagonist. The tissue was then washed again, and a tenfold higher concentration of antagonist added. Following equilibration (30-60 minutes), a third norepinephrine concentration-response curve was determined in the presence of the antagonist.
as §2, §1

[4] = target: T2, alpha2 receptor (guinea pig left atrium) (Cavia porcellus, UniProt Q60474); assay: Alpha2 activity in isolated, superfused guinea pig left atrium: antagonism of clonidine; assay type: cell-based; conditions: for alpha2 effects in guinea pig atrium (in words): up to the highest tested concentration
T2 construct: The left atrium is separated, dissected free of extraneous tissue; from tissue; host or cells: isolated left atrium of male guinea pig
T2 sequence (Q60474 1-464): T1 sequence (Q60474 1-464)
Experimental: as §2
One of the two systems employed to determine alpha2 activity of the compounds was the isolated, superfused guinea pig left atrium. Briefly, the heart is removed from a pentobarbital-anesthetized male guinea pig. The left atrium is separated, dissected free of extraneous tissue and mounted in a 2 ml superfusion chamber. The tissue is paced at 60 pulse/minute and the sympathetic nerves excited at 6 minute intervals by field stimulation. The response to nerve stimulation is measured as the difference in contractile force between the basal contraction and peak contraction following a nerve stimulation. A concentration-response curve for clonidine (a known alpha2 […]) is prepared by administering increasing concentrations of clonidine following each successive stimulation. The tissue then is superfused for thirty minutes with the alpha-adrenoceptor antagonist to be tested and the clonidine concentration-effect curve is repeated in the presence of antagonist. Data are reported as KB, defined above. Additional details of this test system are found in Hieble, J. P. and R. G. Pendleton, Arch. Pharmacol., 309:217-224 (1979).
as §1

[5] = Mean arterial blood pressure and heart rate in spontaneously hypertensive rats; assay type: in vivo; conditions: 1.5 mg/kg intravenously
Experimental: Further, spontaneously hypertensive rats were dosed, intravenously, at a dose of 1.5 mg/kg, with a solution of one of the compounds of the invention (Compound E, Table I) and mean arterial blood pressure was monitored for 45 minutes using indwelling cannulae positioned in the tail arteries. At the end of the 15 minute infusion, systolic and diasystolic pressures had reached their nadirs and were each approximately 30 to 35 mm Hg below vehicle-treated controls. Thirty minutes following cessation of the infusion, systolic and diasystolic pressures remained approximately 20 mm Hg less than the controls. Also, heart rate was measured during the period blood pressure was monitored.

[6] = thirty minutes following cessation of the infusion

Row | SMILES | EC50 [1] | alpha2 effects in guinea pig vas deferens (in words) [1] | antagonism in the alpha3 test system (in words) [2] | separation in the concentrations producing alpha2 and alpha3 effects [2] | Kb [2] | alpha1 activity compared among compounds D, E and F (in words) [3] | Kb [3] | Kb [4] | alpha2 effects in guinea pig atrium (in words) [4] | reflex tachycardia (heart rate) ([5]; heart rate measured during blood pressure monitoring) | diastolic pressure less than controls, after infusion [5, 6] | systolic pressure less than controls, after infusion [5, 6] | alpha3 adrenoceptor selectivity vis-a-vis alpha2 (in words) ([2]; alpha3 vs alpha2, hydrochloride) | EC50 ([1]; guinea pig vas deferens, concentration producing a 50% increase in the stimulated/basal release ratio, read-out: EC50 alpha2 Vas Def) | Kb ([4]; guinea pig left atrium, clonidine, read-out: KB alpha2 Atrium)
1 | CC(C)=CCOc1ccc(Cl)c2c1CCN(C)CC2 [Compound E, 9-(3-methyl-2-butenyloxy)-6-chloro-3-methyl-2,3,4,5-tetrahydro-1H-3-benzazepine] | > 10000 nM | no alpha2 effects | potent antagonists | ≥ 200 fold | 37 nM | similar | 150 nM | > 10000 nM | no alpha2 effects | No statistically significant reflex tachycardia | approximately 20 mm Hg | approximately 20 mm Hg |  |  | 
2 | C=CCOc1ccc(Cl)c2c1CCN(C)CC2.Cl [D, 9-allyloxy-6-chloro-3-methyl-2,3,4,5-tetrahydro-1H-3-benzazepine hydrochloride, reference compound] | 224 nM | significant activity at the alpha2 receptor |  | four | 54 nM | similar | 150 nM | 903 nM | significant activity at the alpha2 receptor |  |  |  | does not approach the high degree of specificity exhibited by the presently invented compounds; also recorded: insignificant alpha3 -adrenoceptor selectivity |  | 
3 | CC=COc1ccc(Cl)c2c1CCN(C)CC2 [F, 9-(1-propenyloxy)-6-chloro-3-methyl-2,3,4,5-tetrahydro-1H-3-benzazepine] |  | no alpha2 effects | potent antagonists |  | 100 to 200 nM | similar | 31 nM |  | no alpha2 effects |  |  |  |  | > 10000 nM | > 1000 nM

— patent US4683229A, “6-halo-9-alkenyleneoxy-3-alkyl-2,3,4,5-tetrahydro-(1H-3)-benzazepines and their use as selective alpha-adrenergic receptor antagonists” (SmithKline Beckman Corporation, priority 1986, dated 1987)
